Results taken from PMC9468552 (Clinical and Translational Science, 2022).

Experiments:
CYP1A2 = biological target: T1, CYP1A2 (Homo sapiens, UniProt P05177); test: Study 004: DDI of EDP‐305; type: in vivo; settings: for Cmax: human, plasma, oral, Geo LSMean
T1 sequence (P05177 1-516): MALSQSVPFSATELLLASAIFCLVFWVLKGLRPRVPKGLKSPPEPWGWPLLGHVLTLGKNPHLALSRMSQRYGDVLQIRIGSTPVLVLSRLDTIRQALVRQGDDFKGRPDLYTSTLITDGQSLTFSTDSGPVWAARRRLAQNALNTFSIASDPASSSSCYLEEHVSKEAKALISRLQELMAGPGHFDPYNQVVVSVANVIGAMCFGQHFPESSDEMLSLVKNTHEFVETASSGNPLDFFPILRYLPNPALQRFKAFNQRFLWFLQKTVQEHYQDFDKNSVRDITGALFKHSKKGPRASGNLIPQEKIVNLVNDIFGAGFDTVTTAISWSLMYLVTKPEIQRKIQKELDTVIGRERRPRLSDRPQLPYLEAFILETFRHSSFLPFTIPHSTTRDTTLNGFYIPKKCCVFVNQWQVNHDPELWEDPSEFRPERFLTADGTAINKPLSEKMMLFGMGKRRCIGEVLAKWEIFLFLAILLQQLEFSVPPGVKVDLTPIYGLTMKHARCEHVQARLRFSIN

CYP3A4 [1] = biological target: T2, CYP3A4 (Homo sapiens, UniProt P08684); test: Study 008: effect of EDP‐305 on combined oral contraceptive; type: in vivo; settings: for AUC0,t, Geo LSMean ratio (90% CI) / Cmax, Geo LSMean ratio (90% CI): OC + EDP‐305 vs OC alone; for AUC(0-t) / Cmax: human, plasma, oral, Geo LSMean, day 21; for AUC(0-t): AUC0,t
T2 sequence (P08684 whole entry): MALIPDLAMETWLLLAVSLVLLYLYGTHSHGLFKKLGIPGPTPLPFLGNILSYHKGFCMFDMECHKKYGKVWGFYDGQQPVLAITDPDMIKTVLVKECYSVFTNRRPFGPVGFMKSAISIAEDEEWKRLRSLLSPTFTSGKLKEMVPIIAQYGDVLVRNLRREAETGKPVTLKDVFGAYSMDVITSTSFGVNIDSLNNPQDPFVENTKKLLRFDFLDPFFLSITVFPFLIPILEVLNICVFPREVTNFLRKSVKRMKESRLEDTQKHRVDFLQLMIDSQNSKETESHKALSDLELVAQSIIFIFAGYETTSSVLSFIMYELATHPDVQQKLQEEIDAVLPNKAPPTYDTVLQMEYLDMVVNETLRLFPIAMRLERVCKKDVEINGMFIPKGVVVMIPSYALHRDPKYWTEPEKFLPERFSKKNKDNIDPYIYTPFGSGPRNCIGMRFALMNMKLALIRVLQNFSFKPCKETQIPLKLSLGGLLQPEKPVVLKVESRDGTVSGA

CYP3A4 [2] = biological target: T2, CYP3A4; test: Study 004: DDI of EDP‐305; type: in vivo; settings: for Cmax: human, plasma, oral, Geo LSMean
OATP1B1/B3 and BCRP = test: Study 004: DDI of EDP‐305; type: in vivo, human
[3] = caffeine + EDP‐305 vs caffeine alone
[4] = OC + EDP‐305 2.5 mg tablet (test)
[5] = midazolam 2 mg + EDP‐305 10 mg (test)
[6] = midazolam + EDP‐305 vs midazolam alone
[7] = rosuvastatin + EDP‐305 vs rosuvastatin alone

For `Cn1c(=O)c2c(ncn2C)n(C)c1=O` [caffeine], the “delayed Tmax (increase)” value (CYP1A2; [3]) was 50%, the “effect on Vd/F” value (CYP1A2; [3]) was “little effect” and the “increase in AUC0‐t” value (CYP1A2; [3]) was 1.90 fold. For the same compound, the “longer t1/2 (increase)” value (CYP1A2; [3]) was 64%, the “lower CL/F (decrease)” value (CYP1A2; [3]) was 45% and the Cmax (CYP1A2; 200 mg, caffeine 200 mg alone (reference)) was 4190 ng/mL. The Cmax (CYP1A2; caffeine 200 mg + EDP‐305 10 mg (test)) was 4720 ng/mL.

For `C#C[C@]1(O)CC[C@H]2[C@@H]3CCc4cc(O)ccc4[C@H]3CC[C@@]21C` [ethinyl estradiol], the “AUC0,t, Geo LSMean ratio (90% CI)” value (CYP3A4 [1]) was 1.08 (1.00, 1.16), the “Cmax, Geo LSMean ratio (90% CI)” value (CYP3A4 [1]) was 1.08 (0.99, 1.19) and the AUC(0-t) (CYP3A4 [1]; OC alone (reference)) was 1.25 ng·h/mL. The Cmax (CYP3A4 [1]; [4]) was 0.148 ng/mL, the Cmax (CYP3A4 [1]; OC alone (reference)) was 0.137 ng/mL and the “Peak and systemic exposures (Cmax and AUC0‐τ), OC + EDP‐305 vs OC alone” value (CYP3A4 [1]; in words) was “similar”.

For `C#C[C@]1(O)CC[C@H]2[C@@H]3CCC4=CC(=O)CC[C@@H]4[C@H]3CC[C@@]21CC` [levonorgestrel], the “AUC0,t, Geo LSMean ratio (90% CI)” value (CYP3A4 [1]) was 1.31 (1.23, 1.39), the “Cmax, Geo LSMean ratio (90% CI)” value (CYP3A4 [1]) was 1.29 (1.21, 1.38) and the AUC(0-t) (CYP3A4 [1]; OC alone (reference)) was 57.2 ng·h/mL. The Cmax (CYP3A4 [1]; [4]) was 3.85 ng/mL and the Cmax (CYP3A4 [1]; OC alone (reference)) was 2.99 ng/mL.

`Cc1ncc2n1-c1ccc(Cl)cc1C(c1ccccc1F)=NC2` [midazolam] was tested, and the Cmax (CYP3A4 [2]; 2 mg, midazolam 2 mg alone (reference)) was 7.51 ng/mL, the Cmax (CYP3A4 [2]; [5]) was 9.41 ng/mL and the “AUC0,inf, Geo LSMean” value (CYP3A4 [2]; [5]) was 32.22 ng·h/mL. For the same compound, the “delayed Tmax (increase)” value (CYP3A4 [2]; [6]) was 98%, the “increase in AUC0‐t” value (CYP3A4 [2]; [6]) was 1.53 fold and the “longer t1/2 (increase)” value (CYP3A4 [2]; [6]) was 34%. The “lower CL/F (decrease)” value (CYP3A4 [2]; [6]) was 36% and the “lower Vd/F (decrease)” value (CYP3A4 [2]; [6]) was 14%.

With `CC(C)c1nc(N(C)S(C)(=O)=O)nc(-c2ccc(F)cc2)c1/C=C/[C@@H](O)C[C@@H](O)CC(=O)O` [rosuvastatin] the Cmax (OATP1B1/B3 and BCRP; human, plasma, oral, Cmax, Geo LSMean, rosuvastatin 20 mg + EDP‐305 10 mg (test)) was 5.59 ng/mL, the “effect on Tmax” value (OATP1B1/B3 and BCRP; [7]) was “no apparent effect” and the “increase in AUC0‐t” value (OATP1B1/B3 and BCRP; [7]) was 1.24 fold. The “longer t1/2 (increase)” value (OATP1B1/B3 and BCRP; [7]) was 17% and the “lower CL/F (decrease)” value (OATP1B1/B3 and BCRP; [7]) was 20%.
